Test results taken from PubChem BioAssay (NCI).
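How tested: cells in 96-well plates exposed to compound for 48 hours at five concentrations. GI50 = concentration required for 50% inhibition of growth. TGI denotes the concentration required for complete inhibition of growth.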

Key:
Assay in all cases: NCI-60 cell line screen, 48 h
[1] = tested on: OVCAR-4 ovarian
[2] = tested on: OVCAR-8 ovarian
[3] = tested on: MALME-3M melanoma
[4] = tested on: SN12C renal
[5] = tested on: KM12 colon
[6] = tested on: RPMI-8226 leukemia
[7] = tested on: HCT-116 colon
[8] = tested on: MOLT-4 leukemia
[9] = tested on: OVCAR-3 ovarian
[10] = tested on: SR leukemia

SMILES: COC(=O)C1(C(=O)OC)CC2c3c(c4ccccc4n3C)CC(C1=O)N2Cc1ccccc1 (stereo unspecified)
- TGI [1]: > 100 µM
- TGI [2]: > 100 µM
- TGI [3]: > 100 µM
- TGI [4]: > 100 µM
- TGI [5]: > 100 µM
- TGI [6]: > 100 µM
- TGI [7]: > 100 µM
- TGI [8]: > 100 µM
- TGI [9]: > 100 µM

SMILES: ClCc1ccc(-c2ccc(Cn3cnc4c(Cl)nc(Cl)nc43)cc2)cc1
- GI50 [1]: 3.39 µM
- TGI [1]: 13.3 µM
- GI50 [3]: 7.06 µM
- TGI [3]: 23.8 µM
- GI50 [4]: 2.72 µM
- TGI [4]: 8.93 µM
- GI50 [5]: 2.12 µM
- TGI [5]: 4.4 µM
- GI50 [10]: 1.9 µM
- TGI [10]: 6.43 µM
- GI50 [6]: 2.33 µM
- TGI [6]: 5.77 µM
- GI50 [7]: 1.58 µM
- TGI [7]: 2.92 µM
- GI50 [8]: 1.95 µM
- TGI [8]: 6.97 µM
- GI50 [9]: 1.65 µM
- TGI [9]: 3.05 µM

SMILES: Cc1oc2c(C)c(O)c3c(c2c1C1(C)OCCO1)C(=O)C=C(Cl)C3=O
- TGI [1]: > 100 µM
- TGI [2]: > 100 µM
- TGI [4]: > 100 µM
- TGI [5]: > 100 µM
- TGI [10]: > 100 µM
- TGI [6]: > 100 µM
- TGI [7]: > 100 µM
- TGI [8]: > 100 µM
- TGI [9]: > 100 µM

SMILES: NC(CNO)C(=O)O (stereo unspecified)
- TGI [1]: > 100 µM
- TGI [2]: > 100 µM
- TGI [3]: > 100 µM
- TGI [4]: > 100 µM
- TGI [5]: > 100 µM
- TGI [6]: > 100 µM
- TGI [7]: > 100 µM
- TGI [9]: > 100 µM

SMILES: Cn1ncc2c(/N=C/c3cccs3)[nH]c(=S)nc21
- GI50 [1]: > 59 µM
- TGI [1]: > 100 µM
- GI50 [2]: 57.5 µM
- TGI [2]: > 100 µM
- GI50 [3]: 34 µM
- TGI [3]: > 80.7 µM
- GI50 [4]: > 36 µM
- TGI [4]: > 69.2 µM
- GI50 [5]: 28.8 µM
- TGI [5]: > 59.4 µM
- GI50 [6]: 31.6 µM
- TGI [6]: > 100 µM
- GI50 [7]: 33.9 µM
- TGI [7]: 98 µM
- GI50 [8]: 44.1 µM
- TGI [8]: > 100 µM
- GI50 [9]: 29.2 µM
- TGI [9]: > 76.7 µM

SMILES: CCOC(=O)c1c(-c2ccccc2)[n+](=O)c2ccc(Cl)cc2n1[O-]
- GI50 [1]: 4.25 µM
- TGI [1]: 22.9 µM
- GI50 [2]: 4.46 µM
- TGI [2]: 16.8 µM
- GI50 [4]: 3.38 µM
- TGI [4]: 13.1 µM
- GI50 [5]: 5.43 µM
- TGI [5]: 18 µM
- GI50 [10]: 2.59 µM
- TGI [10]: 11 µM
- GI50 [6]: 2.44 µM
- TGI [6]: 6.62 µM
- GI50 [7]: 3.72 µM
- TGI [7]: 16.4 µM
- GI50 [8]: 4.93 µM
- TGI [8]: 45.6 µM
- GI50 [9]: 3.88 µM
- TGI [9]: 15.8 µM

SMILES: C=C1C(=O)O[C@H]2[C@H]1CC/C(COC(=O)CCCCCCCCC(=O)OC/C1=C/CC[C@@]3(C)O[C@H]3[C@H]3OC(=O)C(=C)[C@@H]3CC1)=C\CC[C@@]1(C)O[C@@H]21
- GI50 [1]: 2.46 µM
- TGI [1]: 7.55 µM
- GI50 [2]: 3.07 µM
- TGI [2]: 8.1 µM
- GI50 [3]: 1.84 µM
- TGI [3]: 3.97 µM
- GI50 [4]: 2.26 µM
- TGI [4]: 5.32 µM
- GI50 [5]: 2.13 µM
- TGI [5]: 4.68 µM
- GI50 [10]: 1.39 µM
- TGI [10]: 11 µM
- GI50 [6]: 2.92 µM
- TGI [6]: 8.29 µM
- GI50 [8]: 2.58 µM
- TGI [8]: 13.7 µM
- GI50 [9]: 1.67 µM
- TGI [9]: 3.11 µM

SMILES: C[C@@H](CO)OCOCc1ccccc1
- TGI [1]: > 100 µM
- TGI [3]: > 100 µM
- TGI [4]: > 100 µM
- TGI [5]: > 100 µM
- TGI [6]: > 100 µM
- TGI [7]: > 100 µM
- TGI [8]: > 100 µM
- TGI [9]: > 100 µM
